Experimental data reported in patent publication US7314625B2 (priority 2000, dated 2008).

Tested on: P. aeruginosa PAK strain
Format: cell-based

Substance	reduction of adherence to A549 cells
acetyl-KCTSDQDEQFLPKGCSK-NH2 (Ac-KCTSDQDEQFLPKGCSK-NH2; cysteine pairing not given here) [long pilin peptide]	approximately 50%
acetyl-DEQFIPK-NH2 (Ac-DEQFIPK-NH2) [core pilin peptide]	approximately 50%
acetyl-QIDPEFK-NH2 (Ac-QIDPEFK-NH2) [scrambled peptide]	did not interfere with adherence
